Laboratory results reported in patent US10086030B2, “Use of composition in preparing health care products or medicines for preventing and treating allergic diseases” (JIANGZHONG PHARMACEUTICAL CO., LTD., priority 2012, dated 2018).
Where “and” joins values, the source holds several entries; their conditions need not be identical. Equal entries are not always repeated.

Assays:
[1] = system: passive anaphylaxis (PCA) in rats caused by ovalbumin; experiment: Passive anaphylaxis (PCA) in rats caused by ovalbumin: diameter of blue spots, mast cell degranulation, serum histamine; format: in vivo, SD rats; details: for Diameter of blue spots 1:4: 1:4 anti-ovalbumin serum; for Diameter of blue spots 1:8: 1:8 anti-ovalbumin serum
Experimental: On day 15, the back of the rats were shaved, and was intradermally injected with a diluted antiserum at two spots on each side with 0.1 ml per spot. After 48 hours, a 1.0 ml mixed solution of 1% Evans Blue and 1% ovalbumin in physiological saline was injected into the tail vein of each rat. […] The rats were then sacrificed, and their back skin was inverted to measure the diameter of blue reaction spots to determine the difference between the dosing groups and the model group. A sample of the rat skin tissue was fixed with neutral formaldehyde, dehydrated with an alcohol gradient, embedded in paraffin, and examined for mast cell degranulation in the tissue[^3]. […] On day 15, the back of the rats were shaved, and was intradermally injected with a diluted antiserum at two spots on each side with 0.1 ml per spot. After 48 hours, a 1.0 ml mixed solution of 1% Evans Blue and 1% ovalbumin in physiological saline was injected into the tail vein of each rat. […] The rats were then sacrificed, and their back skin was inverted to measure the diameter of blue reaction spots to determine the difference between the dosing groups and the model group. A sample of the rat skin tissue was fixed with neutral formaldehyde, dehydrated with an alcohol gradient, embedded in paraffin, and examined for mast cell degranulation in the tissue^[3]. […] On day 15, the back of the rats were shaved, and was intradermally injected with a diluted antiserum at two spots on each side with 0.1 ml per spot. After 48 hours, a 1.0 ml mixed solution of 1% Evans Blue and 1% ovalbumin in physiological saline was injected into the tail vein of each rat. […] The rats were then sacrificed, and their back skin was inverted to measure the diameter of blue reaction spots to determine the difference between the dosing groups and the model group. A sample of the rat skin tissue was fixed with neutral formaldehyde, dehydrated with an alcohol gradient, embedded in paraffin, and examined for mast cell degranulation in the tissue^[3]. […] On day 15, the back of the rats were shaved, and was intradermally injected with a diluted antiserum at two spots on each side with 0.1 ml per spot. After 48 hours, a 1.0 ml mixed solution of 1% Evans Blue and 1% ovalbumin in physiological saline was injected into the tail vein of each rat. […] The rats were then sacrificed, and their back skin was inverted to measure the diameter of blue reaction spots to determine the difference between the dosing groups and the model group. A sample of the rat skin tissue was fixed with neutral formaldehyde, dehydrated with an alcohol gradient, embedded in paraffin, and examined for mast cell degranulation in the tissue^[3]. […] On day 15, the back of the rats were shaved, and was intradermally injected with a diluted antiserum at two spots on each side with 0.1 ml per spot. After 48 hours, a 1.0 ml mixed solution of 1% Evans Blue and 1% ovalbumin in physiological saline was injected into the tail vein of each rat. […] The rats were then sacrificed, and their back skin was inverted to measure the diameter of blue reaction spots to determine the difference between the dosing groups and the model group. A sample of the rat skin tissue was fixed with neutral formaldehyde, dehydrated with an alcohol gradient, embedded in paraffin, and examined for mast cell degranulation in the tissue^[3]. […] On day 15, the back of the rats were shaved, and was intradermally injected with a diluted antiserum at two spots on each side with 0.1 ml per spot. After 48 hours, a 1.0 ml mixed solution of 1% Evans Blue and 1% ovalbumin in physiological saline was injected into the tail vein of each rat. […] The rats were then sacrificed, and their back skin was inverted to measure the diameter of blue reaction spots to determine the difference between the dosing groups and the model group.

[2] = system: delayed hypersensitivity in mouse auricle skin caused by 2,4-dinitrochlorobenzene; experiment: Delayed hypersensitivity in mouse auricle skin caused by 2,4-dinitrochlorobenzene; format: in vivo, Kunming mice; details: mice
Experimental: A 5% 2,4-dinitrochlorobenzene solution in ethanol was applied onto the abdominal skin (shaved) of the mice for sensitization. […] 7 days after sensitization, a 1% 2,4-dinitrochlorobenzene solution was applied onto the right ear, and the mice were sacrificed after 24 hours, and both ears were cut off along the auricle baseline. Discs having a diameter of 8 mm were punctured out at the same position on both ears, precisely weighed on an electronic balance, and the weight difference between the left and right ears was taken as the value for delayed hypersensitivity.

[3] = system: local itching in mice caused by low-molecular-weight dextran; experiment: Local itching in mice caused by low-molecular-weight dextran; format: in vivo, Kunming mice
Experimental: Intragastric administration was carried out to the mice once per day for 10 consecutive days. 30 min after the final administration, a 0.0125% low-molecular-weight dextran solution was injected at 0.1 g/10 g into the tail vein. The number of itching events (itching events were indicated by scratching on the head with front paws, scratching on the body with hind paws, and biting on various parts over the body) occurred within 30 min after injection with the low-molecular-weight dextran solution into tail veins of the mice in each group was observed and recorded. […] The number of itching events (itching events were indicated by scratching on the head with front paws, scratching on the body with hind paws, and biting on various parts over the body) occurred within 30 min after injection with the low-molecular-weight dextran solution into tail veins of the mice in each group was observed and recorded. […] The number of itching events (itching events were indicated by scratching on the head with front paws, scratching on the body with hind paws, and biting on various parts over the body) occurred within 30 min after injection with the low-molecular-weight dextran solution into tail veins of the mice in each group was observed and recorded. […] The number of itching events (itching events were indicated by scratching on the head with front paws, scratching on the body with hind paws, and biting on various parts over the body) occurred within 30 min after injection with the low-molecular-weight dextran solution into tail veins of the mice in each group was observed and recorded.

[4] = prednisone 5.0 mg, Composition 6 study
[5] = prednisone 5.0 mg, Composition 7 study
[6] = prednisone 5.0 mg, Composition 8 study

C[C@]12C=CC(=O)C=C1CC[C@@H]1[C@@H]2C(=O)C[C@@]2(C)[C@H]1CC[C@]2(O)C(=O)CO [prednisone]
Diameter of blue spots 1:4 [1, 4]: 13.22 ± 1.90 mm | Diameter of blue spots 1:4 [1, 5]: 12.48 ± 2.16 mm | Diameter of blue spots 1:4 [1, 6]: 12.82 ± 2.62 mm | Diameter of blue spots 1:8 [1, 4]: 8.65 ± 1.52 mm | Diameter of blue spots 1:8 [1, 5]: 8.32 ± 1.63 mm | Diameter of blue spots 1:8 [1, 6]: 8.54 ± 1.82 mm | Diameter of blue spots (mm) 1:4 ([1]; antiserum 1:4, positive control prednisone 5.0 mg (5 mg/kg) i.g. once daily 14 days): 12.79 ± 1.88 mm and 11.94 ± 1.90 mm and 11.35 ± 1.74 mm | Diameter of blue spots (mm) 1:8 ([1]; antiserum 1:8, positive control prednisone 5.0 mg (5 mg/kg) i.g. once daily 14 days): 6.72 ± 1.31 mm | Degranulation (mast cell) [1, 4]: 19.80 ± 10.57 | Histamine fluorescence (serum histamine content) [1, 4]: 2.07 ± 0.76 mg·L | Degranulation (mast cell) [1, 5]: 17.54 ± 11.23 | Histamine fluorescence (serum histamine content) [1, 5]: 2.11 ± 0.70 mg·L | Degranulation (mast cell) [1, 6]: 17.95 ± 11.82 | Histamine fluorescence (serum histamine content) [1, 6]: 2.25 ± 0.76 mg·L | Degranulation (mast cell) ([1]; skin tissue, positive control prednisone 5.0 mg (5 mg/kg) i.g. once daily 14 days): 22.54 ± 11.25 and 19.46 ± 8.72 and 21.33 ± 10.48 | swelling degree of mouse auricle discs ([2]; positive control prednisone 5.0 mg (5 mg/kg) i.g. once daily 10 days): 5.07 ± 0.59 mg and 4.22 ± 0.96 mg and 4.80 ± 0.73 mg | swelling degree of mouse auricle discs [2, 4]: 4.62 ± 0.79 mg | swelling degree of mouse auricle discs [2, 5]: 4.84 ± 0.70 mg | swelling degree of mouse auricle discs [2, 6]: 4.60 ± 0.82 mg | Number of itching events (30 min) [3, 4]: 15.43 ± 4.56 | Number of itching events (30 min) [3, 5]: 15.57 ± 5.33 | Number of itching events (30 min) [3, 6]: 14.88 ± 5.08 | Number of itching events (30 min) ([3]; within 30 min after dextran, positive control prednisone 5.0 mg i.g. once daily 10 days): 18.30 ± 4.62 and 14.25 ± 6.72 and 17.20 ± 4.08
